Assay results taken from patent US20240158465A1, “METHOD FOR INDUCING AND DETECTING SOLUBLE LOX-1 (sLOX-1) IN CULTURED BLOOD CLOTS” (GEORGE MASON UNIVERSITY, priority 2022, published 2024).

Assays:
cultured blood clots = assay: sLox-1 shedding into cultured clot serum (ELISA); type: cell-based, human; conditions: cultured clot 4 h, 37° C., vs cultured clot without additive, 100 ng/mL LPS, 10 mM bGP
From the text: This is the enabling data for beta glycerol phosphate and PMA treated blood clots.
Parallel analysis of IL-8/CXCL8 in the cultured clot serum can be used to document test article cytocompatibility. The absence of IL6 in donor fresh blood can be used to verify there is no sepsis or bacteremia, and lack of IL-6 induction in the cultured clot serum can be used to identify sterile inflammation and test article purity (lack of endotoxin response).
In an embodiment, cultured clots were spiked with LPS by injecting an LPS solution into the vacutainer tube immediately after blood collection and before clot formation. These LPS/cultured clots shed even more sLox-1 into the serum than the paired cultured clots without LPS, in line with the known effect of LPS and downstream mediators (TNF, IL1A) in stimulating Lox-1 expression. (FIG. 2).
In an embodiment, a precision medicine tool is developed that detects Lox-1 induction in an ex vivo thrombus and shedding of soluble Lox-1 (sLox-1) into the serum. The tool consists of a red vacutainer tube with as little as 0.5 mL and more ideally 3 or 4 mL of peripheral whole venous blood, that is placed for 4 hours at 37° C.
The optimized cultured clot system involves placing a red cap vacutainer tube with anionic clot-activator at 37° C. for 4 hours after which serum may be collected. Serum contains a mixture of barrier-reducing and barrier-enhancing factors.

sLox-1 shedding by cells = conditions: previous studies; cited from earlier work
cultured clots [1] = assay: RT-PCR of transcript levels in cultured clots; type: cell-based, human; conditions: cultured clot 4 h, 37° C.
Experimental: Lanes: 1. Fresh whole blood (PAXgene); 2. Fresh blood clot (45 min, RT); 3. Cultured clot (4 h, 37° C.); 4. LPS/cultured clot (4 h, 37° C.); 5. Beta-glycerol phosphate cultured clot (4 h, 37° C.); 6. Cultured heparin blood (4 h, 37° C.). OLR1 was induced in all cultured clots (4) and in all cultured clots+LPS ([…]).

cultured clots [2] = assay: CXCL8/IL-8 and IL-6 protein in cultured clot serum; type: cell-based, human; conditions: cultured clot 4 h, 37° C.; for CXCL8/IL-8 protein in cultured clot serum: +100 ng/mL LPS or +10 mM bGP
Experimental: [Key: FB: fresh blood plasma, cC: cultured clot (4 h, 37° C.), Norm: cultured clot under Normoxia, Hyp: cultured clot under Hypoxia, Hep: heparin blood culture (4 h, 37° C.), +LPS: +100 ng/mL lipopolysaccharide, +bGP: +10 mM disodium beta glycerol phosphate].

cultured clots [3] = assay: Neutrophil elastase (NE) release to cultured clot serum; type: cell-based, human; conditions: cultured clot 4 h 37° C.; +10 mM bGP
Experimental: FB=fresh blood; FC=fresh clot ([…] RT incubation); cC=cultured clot (4 h 37° C.; +LPS=cC+100 ng/mL LPS; +bGP=cC+10 mM bGP. This is enabling data for using the cultured clot system to screen drugs for the ability to inhibit neutrophil degranulation in an assay that uses minimally modified whole blood, by measuring the level of NE and/or PR3, or other granule factors (myeloperoxidase, cathepsin G, elastase, metalloproteinases, defensins) in treated versus untreated cultured clot serum.

endothelial cells = conditions: other studies; cited from earlier work
[4] = tested on: heparinized anticoagulated blood; assay: Reversal of heparin anticoagulation to form viable cultured blood clots; type: cell-based; conditions: 4 hours at 37° C.; chitosan 99% DDA, 3 kDa or 10 kDa
From the text: The degree of deacetylation is preferably from 90% to 100% and the molecular weight is preferably at least 3,000 Da and at most 500,000 Da.

HPAEC = assay: TER assay of endothelial barrier function; type: cell-based, human
From the text: In FIG. 28 TER assay with HPAEC treated with 0.2 U/mL thrombin, 10% fresh serum, 10% cultured clot serum or 10% LPS/cultured clot serum produced by peripheral blood collected from 4 healthy donors (N=2 tests per condition for donors 1 and 2 and N=1 test per condition for combined samples from donors 3 and 4). Mean ±standard deviation (N=4 thrombin and N=5 for all other conditions).

[5] = tested on: HEK293 human Lox-1 overexpression system; assay: sLox-1 production in HEK293 human Lox-1 overexpression system; type: cell-based
From the text: Thrombin, for example, had no effect on sLox-1 production in our HEK293 human Lox-1 overexpression system. The enzymes responsible for sLox-1 shedding are under intense debate and not yet identified in neutrophils. Close scrutiny of PR3 leads hypothesize it is a novel neutrophil-specific sheddase of sLox-1. PR3 is harbored in azurophilic and secretory granules of neutrophils. Upon release, PR3 associates with the neutrophil cell surface via CD177 in cholesterol-rich lipid rafts where Lox-1 is located. PR3 activity is believed to preserve endothelial barrier function during neutrophil extravasation. […] One study used trypsin digestion during sample preparation. The proposed sLox-1 cleavage motif is missing an aliphatic P1′ residue used by ADAM10 and ADAM17 to recognize a substrate. By contrast, the human Lox-1 cleavage region (QISA87R88QQA) has a very striking match with the PR3 cleavage site in IL-8 (AVLPRSA↓RKEL). […] (Table 5). The published cleavage sites for sLox-1 in bovine and human produce a non-conserved sLox-1 N-terminus, with NH2-Glutamine for human and NH2-Serine for bovine (Table 5). […] Potentially harmful bystander elastase activity of PR3 [73] could be suppressed by high levels of alpha-1 antitrypsin or ceruloplasmin that we detected by LC-MS in plasma and serum.

## CCCCCCCCCCCCCC(=O)O[C@@H]1[C@@H](C)[C@@]2(O)[C@@H](C=C(CO)C[C@]3(O)C(=O)C(C)=C[C@@H]23)[C@@H]2C(C)(C)[C@]12OC(C)=O [PMA, phorbol myristate acetate]
Cultured blood clots
  sLox-1 shedding into cultured clot serum: enhanced

## O=S(=O)(F)Cc1ccccc1 [PMSF, phenylmethylsulfonyl fluoride]
sLox-1 shedding by cells
  sLox-1 shedding by exposed cells: reduced sLox-1 shedding

## CC(C)C[C@H](CC(=O)NO)C(=O)N[C@@H](Cc1ccc2ccccc2c1)C(=O)N[C@@H](C)C(=O)NCCN [TAPI-1]
sLox-1 shedding by cells
  sLox-1 shedding by exposed cells: reduced sLox-1 shedding

## O=P([O-])([O-])OC(CO)CO.[Na+].[Na+] [bGP, disodium beta glycerol phosphate]
Cultured blood clots
  sLox-1 shedding into cultured clot serum: suppressed
Cultured blood clots; listed as phosphatase inhibitor
  sLox-1 shedding into cultured clot serum: inhibited
Cultured clots [1]; 10 mM
  CXCL8/IL-8 expression (RT-PCR): without suppressing
  TNF expression (RT-PCR): specifically suppressed
Cultured clots [2]
  CXCL8/IL-8 protein in cultured clot serum: does not alter
Cultured clots [3]
  neutrophil elastase (NE) release to serum: inhibited

## CC(C)c1nc(N(C)S(C)(=O)=O)nc(-c2ccc(F)cc2)c1/C=C/[C@@H](O)C[C@@H](O)CC(=O)O [rosuvastatin]
Endothelial cells
  Lox-1 expression in endothelial cells: inhibited Lox-1 expression

## lipopolysaccharide [LPS]
Cultured blood clots
  sLox-1 shedding into cultured clot serum: increased
Cultured clots [1]
  IL6 expression (RT-PCR): induced
Cultured clots [2]; +100 ng/mL LPS
  IL-6 protein in cultured clot serum: elevated
Cultured clots [2]
  CXCL8/IL-8 protein in cultured clot serum: elevated

## protamine
[4]
  reversal of heparin anticoagulation, forming viable cultured blood clots: reverse heparin anticoagulation

## thrombin
HPAEC; 0.6 hours post-stimulation, vs control, fresh serum
  effect on endothelial barrier function: transient loss of barrier function
HPAEC; HPAEC, 10% serum or 0.2 U/mL thrombin, 36 min, mean ± SD
  mean normalized resistance at 36 min: 0.48±0.03
[5]
  sLox-1 production: no effect
